Data reported in the CheMixHub viscosity set.
± gives the uncertainty stated by the source.

Assay: xn = mol fraction of the nth substance listed

CS(=O)(=O)[O-].C[NH+]1CCCC1=O + O
viscosity [mPa·s], 100 kPa
Conditions | x1 = 0.00179 | x1 = 0.003586 | x1 = 0.005368 | x1 = 0.008047 | x1 = 0.01067 | x1 = 0.01419 | x1 = 0.02096 | x1 = 0.0263 | x1 = 0.03141
293.15 K | 1.057 ± 0.012 | 1.106 ± 0.013 | 1.151 ± 0.013 | 1.222 ± 0.014 | 1.295 ± 0.015 | 1.396 ± 0.016 | 1.594 ± 0.018 | 1.754 ± 0.02 | 1.917 ± 0.022
298.15 K | 0.9409 ± 0.011 | 0.9808 ± 0.011 | 1.02 ± 0.012 | 1.08 ± 0.012 | 1.146 ± 0.013 | 1.233 ± 0.014 | 1.409 ± 0.016 | 1.551 ± 0.018 | 1.681 ± 0.019
303.15 K | 0.8421 ± 0.0097 | 0.8782 ± 0.01 | 0.9124 ± 0.01 | 0.9664 ± 0.011 | 1.022 ± 0.012 | 1.099 ± 0.013 | 1.254 ± 0.014 | 1.374 ± 0.016 | 1.483 ± 0.017
308.15 K | 0.7603 ± 0.0088 | 0.7902 ± 0.0092 | 0.8191 ± 0.0095 | 0.8672 ± 0.01 | 0.9163 ± 0.011 | 0.9865 ± 0.011 | 1.126 ± 0.013 | 1.232 ± 0.014 | 1.325 ± 0.015

C=C(C)C(=O)OC + CCCCO
viscosity [mPa·s], 101.3 kPa
Conditions | 298.15 K | 308.15 K
x1 = 0.05 | 2.22 ± 0.014 | 1.726 ± 0.011
x1 = 0.1489 | 1.7 ± 0.011 | 1.355 ± 0.009
x1 = 0.2479 | 1.341 ± 0.009 | 1.092 ± 0.007
x1 = 0.3487 | 1.086 ± 0.007 | 0.9 ± 0.006
x1 = 0.4499 | 0.906 ± 0.006 | 0.761 ± 0.005
x1 = 0.5024 | 0.835 ± 0.006 | 0.705 ± 0.005
x1 = 0.5479 | 0.783 ± 0.005 | 0.664 ± 0.005
x1 = 0.6441 | 0.699 ± 0.005 | 0.596 ± 0.004
x1 = 0.7437 | 0.639 ± 0.005 | 0.546 ± 0.004
x1 = 0.8469 | 0.602 ± 0.004 | 0.513 ± 0.004
x1 = 0.9453 | 0.585 ± 0.004 | 0.496 ± 0.004

ClCCCCCCCl + c1ccccc1
viscosity [mPa·s], 101 kPa
Conditions | x1 = 0.09315 | x1 = 0.1846 | x1 = 0.2859 | x1 = 0.3958 | x1 = 0.5003 | x1 = 0.5842 | x1 = 0.6836 | x1 = 0.7842 | x1 = 0.8829
308.15 K | 0.565 ± 0.012 | 0.613 ± 0.013 | 0.668 ± 0.014 | 0.733 ± 0.015 | 0.824 ± 0.017 | 0.92 ± 0.019 | 1.066 ± 0.022 | 1.217 ± 0.026 | 1.393 ± 0.03
313.15 K | 0.546 ± 0.011 | 0.591 ± 0.012 | 0.645 ± 0.014 | 0.704 ± 0.015 | 0.789 ± 0.017 | 0.888 ± 0.019 | 1.014 ± 0.021 | 1.164 ± 0.025 | 1.324 ± 0.028
318.15 K | 0.505 ± 0.011 | 0.548 ± 0.012 | 0.594 ± 0.012 | 0.642 ± 0.014 | 0.72 ± 0.015 | 0.809 ± 0.017 | 0.929 ± 0.02 | 1.056 ± 0.022 | 1.197 ± 0.025

C=C(C)C(=O)OC + CCCCOCCO
viscosity [mPa·s], 101.3 kPa
Conditions | 298.15 K | 308.15 K
x1 = 0.0589 | 2.45 ± 0.015 | 1.998 ± 0.013
x1 = 0.1467 | 2.063 ± 0.013 | 1.704 ± 0.011
x1 = 0.2571 | 1.682 ± 0.011 | 1.408 ± 0.009
x1 = 0.3556 | 1.416 ± 0.009 | 1.196 ± 0.008
x1 = 0.4555 | 1.201 ± 0.008 | 1.021 ± 0.007
x1 = 0.5016 | 1.117 ± 0.007 | 0.952 ± 0.006
x1 = 0.5559 | 1.028 ± 0.007 | 0.878 ± 0.006
x1 = 0.6734 | 0.868 ± 0.006 | 0.742 ± 0.005
x1 = 0.7556 | 0.778 ± 0.005 | 0.664 ± 0.005
x1 = 0.857 | 0.686 ± 0.005 | 0.583 ± 0.004
x1 = 0.9547 | 0.613 ± 0.004 | 0.518 ± 0.004

C[N+](C)(C)CCC[N+]1(C)CCCCC1.N#C[N-]C#N.N#C[N-]C#N + CC#N
viscosity [mPa·s], 100 kPa
Conditions | x1 = 0.0999 | x1 = 0.7001 | x1 = 0.7996
298.15 K | – | – | 895.3 ± 100
318.15 K | 2.675 ± 0.27 | 163.5 ± 17 | –

C=C(C)C(=O)OC + c1ccccc1
303.15 K, 101 kPa
Conditions | viscosity [mPa·s]
x1 = 0.1019 | 0.5507 ± 0.0059
x1 = 0.198 | 0.543 ± 0.0059
x1 = 0.4005 | 0.5273 ± 0.0058
x1 = 0.4996 | 0.522 ± 0.0058
x1 = 0.5998 | 0.519 ± 0.0058
x1 = 0.8001 | 0.5141 ± 0.0058
x1 = 0.896 | 0.5142 ± 0.0058

[I-].[Na+] + OCCO
101 kPa, x1 = 0.2
Conditions | viscosity [mPa·s]
303 K | 47.72 ± 0.72
313 K | 29.93 ± 0.42
323 K | 20.08 ± 0.27

C=C(C)C(=O)OC + C1CCCCC1
303.15 K, 101 kPa
Conditions | viscosity [mPa·s]
x1 = 0.1178 | 0.6811 ± 0.0067
x1 = 0.2021 | 0.6254 ± 0.0063
x1 = 0.3973 | 0.5474 ± 0.0059
x1 = 0.4984 | 0.5261 ± 0.0058
x1 = 0.5963 | 0.5188 ± 0.0058
x1 = 0.804 | 0.5141 ± 0.0058
x1 = 0.9019 | 0.5099 ± 0.0057

O=C(c1ccccc1)N(O)c1ccccc1 + CS(C)=O
101 kPa
Conditions | viscosity [mPa·s]
308.15 K, x1 = 0.1408 | 2.065 ± 0.099
318.15 K, x1 = 0.4694 | 1.565 ± 0.075

CC(=O)Oc1ccccc1 + CCCCCOC(C)=O
Conditions | viscosity [mPa·s]
298.15 K, 101 kPa, x1 = 0.5 | 0.9319 ± 0.0092

[I-].[Na+] + O
310.15 K, 101 kPa
Conditions | viscosity [mPa·s]
x1 = 0.000186 | 0.7003 ± 0.0061
x1 = 0.000929 | 0.6978 ± 0.0062
x1 = 0.001834 | 0.6993 ± 0.0062
x1 = 0.002695 | 0.7053 ± 0.0063
x1 = 0.003679 | 0.7179 ± 0.0064
x1 = 0.005197 | 0.749 ± 0.0067
x1 = 0.005988 | 0.7709 ± 0.0069

C=C(C)C(=O)OC + CC(C)OC(C)C
viscosity [mPa·s], 101.3 kPa
Conditions | 298.15 K | 308.15 K
x1 = 0.0416 | 0.385 ± 0.003 | 0.291 ± 0.003
x1 = 0.1479 | 0.401 ± 0.004 | 0.309 ± 0.003
x1 = 0.2488 | 0.417 ± 0.004 | 0.326 ± 0.003
x1 = 0.3488 | 0.434 ± 0.004 | 0.344 ± 0.003
x1 = 0.4527 | 0.453 ± 0.004 | 0.364 ± 0.003
x1 = 0.4958 | 0.461 ± 0.004 | 0.372 ± 0.003
x1 = 0.5472 | 0.472 ± 0.004 | 0.383 ± 0.003
x1 = 0.6489 | 0.493 ± 0.004 | 0.404 ± 0.004
x1 = 0.7504 | 0.517 ± 0.004 | 0.427 ± 0.004
x1 = 0.8502 | 0.542 ± 0.004 | 0.451 ± 0.004
x1 = 0.944 | 0.569 ± 0.004 | 0.474 ± 0.004

C[n+]1ccn(CC(=O)O)c1.[Cl-] + O
298.15 K, 101 kPa
Conditions | viscosity [mPa·s]
x1 = 0.0009 | 0.911 ± 0.037
x1 = 0.001 | 0.915 ± 0.037
x1 = 0.002 | 0.917 ± 0.037

C=C(C)C(=O)OC + CCCCCO
viscosity [mPa·s], 101.3 kPa
Conditions | 298.15 K | 308.15 K
x1 = 0.0449 | 3.018 ± 0.019 | 2.317 ± 0.014
x1 = 0.1463 | 2.195 ± 0.014 | 1.733 ± 0.011
x1 = 0.2463 | 1.658 ± 0.011 | 1.34 ± 0.009
x1 = 0.3476 | 1.29 ± 0.008 | 1.064 ± 0.007
x1 = 0.4311 | 1.077 ± 0.007 | 0.9 ± 0.006
x1 = 0.5019 | 0.941 ± 0.006 | 0.793 ± 0.005
x1 = 0.5439 | 0.876 ± 0.006 | 0.74 ± 0.005
x1 = 0.6459 | 0.753 ± 0.005 | 0.641 ± 0.005
x1 = 0.7431 | 0.674 ± 0.005 | 0.575 ± 0.004
x1 = 0.8477 | 0.619 ± 0.004 | 0.527 ± 0.004
x1 = 0.9445 | 0.591 ± 0.004 | 0.501 ± 0.004

O=C(O)CCCC(=O)O + C[N+](C)(C)CCO.[Cl-]
100 kPa, x2 = 0.5
Conditions | viscosity [mPa·s]
293.15 K | 2968 ± 190
298.15 K | 2015 ± 120
303.15 K | 1408 ± 81
308.15 K | 1007 ± 55
313.15 K | 735.8 ± 39
318.15 K | 547.5 ± 28
323.15 K | 414.6 ± 20

C[C@H](N)C(=O)N[C@@H](CCC(N)=O)C(=O)O + O
Conditions | viscosity [mPa·s]
298.15 K, 101 kPa, x1 = 0.0008999 | 0.919 ± 0.006

C=C(C)C(=O)OC + CCCCCC
303.15 K, 101 kPa
Conditions | viscosity [mPa·s]
x1 = 0.1029 | 0.2962 ± 0.0048
x1 = 0.2077 | 0.3069 ± 0.0048
x1 = 0.4005 | 0.3338 ± 0.0049
x1 = 0.5052 | 0.3523 ± 0.005
x1 = 0.6046 | 0.3758 ± 0.0051
x1 = 0.7056 | 0.4934 ± 0.0057

CCCC[n+]1ccn(C)c1.O=C([O-])C(F)(F)F + O
Conditions | viscosity [mPa·s]
298.15 K, 101 kPa, x2 = 0.7927 | 9.03 ± 1
